The subject of one series is C2C12 muscle cells. The series is described as follows: Expression of porcine GHRH from a myostatin promoter vector transiently transfected into C2C12 muscle cells. The format is cell-based, murine. The conditions noted are these: transient transfection, compared with a CMV promoter. From the text: Direct injection into muscle of DNA plasmids with muscle specific or constitutive promoters results in expression of the gene under control of that promoter. A vector utilizing the murine 2.5 kb myostatin promoter to drive expression of porcine growth hormone releasing hormone (GHRH) was constructed. […] In accordance with the present invention, the construct may be directly introduced into a host by direct injection of naked DNA.

The subject of series [1] is luciferase reporter gene in C2C12 cells. The series is described as follows: Transient transfection luciferase reporter assay of myostatin promoter fragments. Particulars: normalized against Renilla luciferase activity. Type of series: cell-based, murine. Here is the method:
C2C12 are murine muscle cell lines (ATCC #CRL-1772). These cells were maintained in standard culture media at 37° C.
The 1.8 kb and 2.5 kb myostatin promoter fragments and additional subclones of 320 bp and 901 bp proximal to the myostatin protein coding region were placed into the multicloning site of the pGL3 basic vector (Promega) 5′ to the coding sequence for luciferase. In this vector, the luciferase gene lacks a promoter, and, consequently, is under the control of any promoter cloned upstream of it. These plasmid vectors were used to transiently transfect C2C12 cells, using Fugene (Boehringer Mannheim) as a carrier to introduce the plasmid into the cells. The cell cultures were grown at 37° C., 5% CO2, in DMEM, and luciferase activity was measured using a commercial kit (Promega Luciferase Assay System, E150).
The ability of the various fragments of the murine myostatin promoter region to control expression of the luciferase reporter gene in transient transfection assays is shown in FIG. 2. In each experiment, C2C12 cells were co-transfected with a second vector that employs a CMV promotor to express constitutively a Renilla luciferase gene (pRL-CMV, Promega). Values presented for the myostatin promoter constructs were all normalized against Renilla luciferase activity.
Background: Reporter assays use an easily measured gene product as a stand-in for the process of interest.

For the substance “2.5 kb fragment: 2482 bp DNA fragment immediately 5' to the murine myostatin gene, the murine myostatin promoter (SEQ ID NO: 1)”, the “expression of GHRH detected in culture supernatants” value in the series with C2C12 muscle cells is “levels similar to those found using a CMV promoter”. Also, the “transcriptional activity (luciferase reporter expression), in words” value in series [1] is “strongest promoter of those tested”.
